Here are results for 32 compounds from patent publication US20060116390A1, “Hepatitis c virus inhibitors” (priority 2003, published 2006).

This test deals with HCV proteins in Rep5.1 cells (replicon cell line). Description: Inhibitory activity of HCV: cell-based ELISA in replicon cell line Rep5.1 (decrease of HCV proteins). The arrangement: species or system hepatitis C virus. The settings on record: Rep5.1 cells, 72 hours with drug. The method in brief:
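HCV protein loss was quantified by ELISA on methanol/acetone-fixed cells 72 h after drug addition, probing with selected HCV-positive human plasma, and IC50 was defined as 50% reduction relative to untreated wells. The cells were Rep5.1 replicon cells cultured in DMEM-10 with 500 μg/ml G418, plated at 5000 per well and dosed with serial dilutions after 4 h attachment.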
Background: In an ELISA, binding on a coated surface is turned into a signal by an enzyme label.

Where [1] appears, read: Hepatitis C virus, 72 h, concentration at which 50% of HCV proteins was decreased, Table 2, read-out: IC50.
The mark [2] stands for this setting: Hepatitis C virus, 72 h, decrease of HCV proteins measured by HCV antibody, Table 1, read-out: Level (IC50 values classified).
Where [3] appears, read: concentration at which 50% of HCV proteins was decreased, Table 2, read-out: IC50.

The structures appear in SMILES notation. Where two headings read alike, the source gives them in different places.

Broadly, the IC50 is the concentration needed to halve the response being measured. As for `CC1=C(C(=O)OCc2cccc(I)c2)CNC(=S)N1` [Compound 75, 6-methyl-2-thioxo-1,2,3,4-tetrahydro-pyrimidine-5-carboxylic acid 3-iodo-benzyl ester], the IC50 under setting [1] was < 500 nM and the IC50 under setting [2] was < 1000 nM.
For the compound `CC1=C(C(=O)OC2CCc3c2csc3Cl)CNC(=S)N1` (centres unmarked) [21′, 6-methyl-2-thioxo-1,2,3,4-tetrahydro-pyrimidine-5-carboxylic acid 1-chloro-5,6-dihydro-4H-cyclopenta[c]thiophen-4-yl ester], the IC50 under setting [1] was 400 nM and the IC50 under setting [2] is < 1000 nM.
Taken in the same sequence, the figures for `CC1=C(C(=O)OCC2CCOC2)CNC(=S)N1` (centres unmarked) [Compound 162, 6-methyl-2-thioxo-1,2,3,4-tetrahydro-pyrimidine-5-carboxylic acid tetrahydrofuran-3-ylmethyl ester] were > 100000 nM and > 20000 nM.
Taken in the same sequence, the figures for `CCOc1ccccc1CCOC(=O)C1=C(C)NC(=S)NC1CO` (centres unmarked) [11″, 4-hydroxymethyl-6-methyl-2-thioxo-1,2,3,4-tetrahydro-pyrimidine-5-carboxylic acid 2-(2-ethoxy-phenyl)-ethyl ester] were 6000 nM and 1000 to 10000 nM.
Taken in the same sequence, the figures for `CC1=C(C(=O)OCCC2CCCC2)C(CO)NC(=S)N1` (centres unmarked) [36″, 4-hydroxymethyl-6-methyl-2-thioxo-1,2,3,4-tetrahydro-pyrimidine-5-carboxylic acid 2-cyclopentyl-ethyl ester] were 3000 nM and 1000 to 10000 nM.
With `CC1=C(C(=O)OCCCc2ccncc2)CNC(=S)N1` [Compound 13, 6-methyl-2-thioxo-1,2,3,4-tetrahydro-pyrimidine-5-carboxylic acid 3-pyridin-4-yl-propyl ester], the concentration for half-maximal inhibition (IC50) is > 100000 nM under setting [1] and > 20000 nM under setting [2].
The corresponding values for `CC1=C(C(=O)OCc2ccc(-c3cccs3)s2)C(CF)NC(=S)N1` (centres unmarked) [62′, 4-fluoromethyl-6-methyl-2-thioxo-1,2,3,4-tetrahydro-pyrimidine-5-carboxylic acid [2,2′]bithiophenyl-5-ylmethyl ester] are 2000 nM and 1000 to 10000 nM.
On to `CC1=C(C(=O)OCCc2ccsc2Br)C(CF)NC(=S)N1` (centres unmarked) [Compound 268, 4-fluoromethyl-6-methyl-2-thioxo-1,2,3,4-tetrahydro-pyrimidine-5-carboxylic acid 2-(2-bromo-thiophen-3-yl)-ethyl ester], for which the IC50 reads like this: under setting [1], 1000 nM; under setting [2], 1000 to 10000 nM.
Taken in the same sequence, the figures for `CC1=C(C(=O)OCC2CC=CCC2)CNC(=S)N1` (centres unmarked) [3′, 6-methyl-2-thioxo-1,2,3,4-tetrahydro-pyrimidine-5-carboxylic acid cyclohex-3-enylmethyl ester] were 700 nM and < 1000 nM.
Taken in the same sequence, the figures for `CC1=C(C(=O)SCc2ccccc2)CNC(=S)N1` [Compound 85, 6-methyl-2-thioxo-1,2,3,4-tetrahydro-pyrimidine-5-carbothioic acid S-benzyl ester] were 100 nM and < 1000 nM.
Taken in the same sequence, the figures for `CC1=C(C(=O)OCc2ccc(O)cc2)CNC(=S)N1` [Compound 229, 6-methyl-2-thioxo-1,2,3,4-tetrahydro-pyrimidine-5-carboxylic acid 4-hydroxy-benzyl ester] were > 100000 nM and > 20000 nM.
As for `CCCN(CCC)c1ccc(CCOC(=O)C2=C(C)NC(=S)NC2CO)cc1[N+](=O)[O-]` (centres unmarked) [93″, 4-Hydroxymethyl-6-methyl-2-thioxo-1,2,3,4-tetrahydro-pyrimidine-5-carboxylic acid 2-(4-dipropylamino-3-nitro-phenyl)-ethyl ester], the IC50 is, setting by setting: under setting [1], 500 nM; under setting [2], < 1000 nM.
Taken in the same sequence, the figures for `CC(=O)OCC1NC(=S)NC(C)=C1C(=O)OCCCc1ccsc1` (centres unmarked) [22″, 4-acetoxymethyl-6-methyl-2-thioxo-1,2,3,4-tetrahydro-pyrimidine-5-carboxylic acid 3-thiophen-3-yl-propyl ester] were 43000 nM and > 20000 nM.
Consider `CCc1ccc(CCOC(=O)C2=C(C)NC(=S)NC2)s1` [Compound 266, 6-methyl-2-thioxo-1,2,3,4-tetrahydro-pyrimidine-5-carboxylic acid 2-(5-ethyl-thiophen-2-yl)-ethyl ester], for which the IC50 reads like this: under setting [1], 600 nM; under setting [2], < 1000 nM.
Taken in the same sequence, the figures for `CC1=C(C(=O)OCCc2ccsc2)C(COCc2ccccc2)NC(=S)N1` (centres unmarked) [Compound 272, 4-benzyloxymethyl-6-methyl-2-thioxo-1,2,3,4-tetrahydro-pyrimidine-5-carboxylic acid 2-thiophen-3-yl-ethyl ester] were 34000 nM and > 20000 nM.
The corresponding values for `CC1=C(C(=O)OCc2c(C)cc(C)cc2C)CNC(=S)N1` [Compound 142, 6-methyl-2-thioxo-1,2,3,4-tetrahydro-pyrimidine-5-carboxylic acid 2,4,6-trimethyl-benzyl ester] are 6000 nM and 1000 to 10000 nM.
`CC1=C(C(=O)OCc2ccc(Cl)cc2)C(CF)NC(=S)N1` (centres unmarked) [34′, 4-fluoromethyl-6-methyl-2-thioxo-1,2,3,4-tetrahydro-pyrimidine-5-carboxylic acid 4-chloro-benzyl ester]: the IC50 is, setting by setting: under setting [1], 700 nM; under setting [2], < 1000 nM.
Taken in the same sequence, the figures for `CC1=C(C(=O)OCCc2ccccc2Cl)CNC(=S)N1` [Compound 118, 6-methyl-2-thioxo-1,2,3,4-tetrahydro-pyrimidine-5-carboxylic acid 2-(2-chloro-phenyl)-ethyl ester] were < 400 nM and < 1000 nM.
On to `COCC1NC(=S)NC(C)=C1C(=O)OCCc1ccsc1` (centres unmarked) [2″, 4-methoxymethyl-6-methyl-2-thioxo-1,2,3,4-tetrahydro-pyrimidine-5-carboxylic acid 2-thiophen-3-yl-ethyl ester], for which the IC50 is, setting by setting: under setting [1], 35000 nM; under setting [2], > 20000 nM.
With `CCCCCC(CC)OC(=O)C1=C(C)NC(=S)NC1` (centres unmarked) [Compound 47, 6-methyl-2-thioxo-1,2,3,4-tetrahydro-pyrimidine-5-carboxylic acid 1-ethyl-hexyl ester], the IC50 under setting [1] is < 500 nM and the IC50 under setting [2] is < 1000 nM.
Take `CC1=C(C(=O)OCCOc2ccccc2)CNC(=S)N1` [Compound 163, 6-methyl-2-thioxo-1,2,3,4-tetrahydro-pyrimidine-5-carboxylic acid 2-phenoxy-ethyl ester]: the IC50 runs as follows: under setting [1], 2500 nM; under setting [2], 1000 to 10000 nM.
Take `CC1=C(C(=O)OCc2noc(C)n2)CNC(=S)N1` [30′, 6-methyl-2-thioxo-1,2,3,4-tetrahydro-pyrimidine-5-carboxylic acid 5-methyl-[1,2,4]oxadiazol-3-ylmethyl ester]: the IC50 under setting [1] is > 100000 nM and the IC50 under setting [2] was > 20000 nM.
Taken in the same sequence, the figures for `CC1=C(C(=O)OCC2(c3ccc(Cl)cc3Cl)CC2)C(CO)NC(=S)N1` (centres unmarked) [61″, 4-hydroxymethyl-6-methyl-2-thioxo-1,2,3,4-tetrahydro-pyrimidine-5-carboxylic acid 1-(2,4-dichloro-phenyl)-cyclopropylmethyl ester] were 16000 nM and 10000 to 20000 nM.
The corresponding values for `CC1=C(C(=O)OCc2ccc(Cl)s2)CNC(=S)N1` [Compound 233, 6-methyl-2-thioxo-1,2,3,4-tetrahydro-pyrimidine-5-carboxylic acid 5-chloro-thiophen-2-ylmethyl ester] are 200 nM and < 1000 nM.
Take `CCOCC#CCOC(=O)C1=C(C)NC(=S)NC1` [Compound 236, 6-methyl-2-thioxo-1,2,3,4-tetrahydro-pyrimidine-5-carboxylic acid 4-ethoxy-but-2-inyl ester]: the IC50 under setting [3] was found to be 14000 nM.
For the compound `CC1=C(C(=O)SCc2ccco2)CNC(=S)N1` [38′, 6-methyl-2-thioxo-1,2,3,4-tetrahydro-pyrimidine-5-carbothioic acid S-furan-2-ylmethyl ester], the IC50 under setting [1] worked out at 700 nM and the IC50 under setting [2] was < 1000 nM.
Regarding `CC1=C(C(=O)OCCc2cccc(C(F)(F)F)c2)C(CO)NC(=S)N1` (centres unmarked) [38″, 4-hydroxymethyl-6-methyl-2-thioxo-1,2,3,4-tetrahydro-pyrimidine-5-carboxylic acid 2-(3-trifluoromethyl-phenyl)-ethyl ester], the IC50 under setting [1] was < 400 nM and the IC50 under setting [2] was < 1000 nM.
The corresponding values for `CC1=C(C(=O)OCCc2c[nH]c3ccccc23)CNC(=S)N1` [Compound 102, 6-methyl-2-thioxo-1,2,3,4-tetrahydro-pyrimidine-5-carboxylic acid 2-(1H-indol-3-yl)-ethyl ester] are 2000 nM and 1000 to 10000 nM.
The corresponding values for `CC1=C(C(=O)OC2CCc3c(Cl)sc(Cl)c32)CNC(=S)N1` (centres unmarked) [12′, 6-methyl-2-thioxo-1,2,3,4-tetrahydro-pyrimidine-5-carboxylic acid 1,3-dichloro-5,6-dihydro-4H-cyclopenta[c]thiophen-4-yl ester] are < 400 nM and < 1000 nM.
On to `C#CCCOC(=O)C1=C(C)NC(=S)NC1` [Compound 129, 6-methyl-2-thioxo-1,2,3,4-tetrahydro-pyrimidine-5-carboxylic acid but-3-inyl ester], for which the IC50 under setting [3] was > 100000 nM.
Consider `CC1=C(C(=O)OCCc2cccc(Cl)c2)C(CO)NC(=S)N1` (centres unmarked) [31″, 4-hydroxymethyl-6-methyl-2-thioxo-1,2,3,4-tetrahydro-pyrimidine-5-carboxylic acid 2-(3-chloro-phenyl)-ethyl ester], for which the IC50 is, setting by setting: under setting [1], 1000 nM; under setting [2], < 1000 nM.
The corresponding values for `CC1=C(C(=O)OCCc2c(F)cccc2F)C(CF)NC(=S)N1` (centres unmarked) [75′, 4-fluoromethyl-6-methyl-2-thioxo-1,2,3,4-tetrahydro-pyrimidine-5-carboxylic acid 2-(2,6-difluoro-phenyl)-ethyl ester] are 2600 nM and 1000 to 10000 nM.
